# Reference: patent publication US20220387358A1, “CERAMIDE ANALOG SACLAC MODULATES SPHINGOLIPID LEVELS AND MCL-1 SPLICING TO INDUCE APOPTOSIS IN ACUTE MYELOID LEUKEMIA” (University of Virginia Patent Foundation, priority 2019, published 2022)
# Columns and labels:
# [1] = system: primary AML patient samples; test: Apoptosis by flow cytometry (Annexin V); assay type: cell-based, human; conditions: seven patient samples; 48-hour treatment
# Description: (§1) Apoptosis in cell lines was assessed after treating 2.5×10^5 cells per ml with drug or vehicle in a 48-well plate for the indicated time points and doses. Primary human AML cells were pre-incubated with SFEM for 48 hours before plating 2×10^5 cells in 24-well plates for the indicated times point and doses. Samples were stained using the Muse Annexin V & Dead Cell Kit (Millipore #MCH100105). Change in mitochondrial membrane potential in cell lines was measured with the Muse® MitoPotential Kit (#MCH100110, MilliporeSigma, Burlington, Mass., United States of America). Caspase activation was measured using the Muse® Caspase 3/7 Assay Kit (#MCH100108, MilliporeSigma, Burlington, Mass., United States of America). For rescue experiments, cells were plated at 2.5×10^4 well in a 96-well plate 24 hours after electroporation. Cells were treated with DMSO or […] for 48 hours and apoptosis was detected as stated above. All kits were used according to manufacturer's protocol. Cells were then analyzed using the Muse® Cell Analyzer (MilliporeSigma, Burlington, Massachusetts, United States of America) (35,36). Experiments included positive and negative controls for proper analysis.
# OCI-AML2 cells = test: Mitochondrial membrane potential (Muse MitoPotential Kit); assay type: cell-based, human; conditions: SACLAC 5 μM; time course
# Description: as §1
# [2] = system: THP-1, HL60-VCR and KG1a cell lines; test: Western blot of SF3B1 and Mcl-1S/L in further cell lines; assay type: cell-based, human; conditions: 20 μM SACLAC; 48 hours; all three cell lines
# Description: Cells were plated at 2.5×10^5 cells per ml in 6-well plates and treated with drug, vehicle or siRNA at the indicated doses and time points. Cells were harvested, washed with PBS and lysed prior to preparation of protein extracts for western blotting.
# More particularly, cells were lysed with RIPA buffer (#R0278, Sigma, St. Louis, Mo., United States of America) containing phosphatase inhibitor cocktails 2 and 3 (Sigma #P5726, #P0044) and protease inhibitor cocktail (#P8340, Sigma, St. Louis, Mo., United States of America). Protein was quantified using a bicinchoninic acid (BCA) protein assay kit (#23225, Pierce, Waltham, Mass., United States of America). Samples were resolved on a Bolt 4-12% SDS-PAGE gel (#NW00082, ThermoFisher Scientific, Waltham, Mass., United States of America) and transferred to PVDF membrane (#170-4274, Bio-Rad Laboratories, Hercules, Calif., United States of America). Antibodies were obtained from Cell Signaling Technology (Danvers, Mass., United States of America) unless indicated otherwise. […] Quantification was done using Bio-Rad ImageLab 6.0.1 software (Bio-Rad Laboratories, Hercules, Calif., United States of America). For quantification, bands were normalized to β-actin as a loading control.
# [3] = Pharmacokinetics, SACLAC in blood/serum by mass spectrometry; assay type: in vivo
# Description: More particularly, maximum tolerated dose of SACLAC was determined in NOD-scid IL2Rgamma^null (NSG) mice (n=5; Jackson Laboratories, Bar Harbor, Me., United States of America). Mice were injected with SACLAC reconstituted in β-HPCD (IV) daily for 5 days at a dose of 5 mg/kg body weight, respectively. For pharmacokinetics studies, Swiss Webster mice (n=3; Charles River Laboratories, Wilmington, Mass., United States of America) were injected with SACLAC dissolved in DMSO (40 mg/kg body weight, intraperitoneally) or dissolved in β-HPCD (5 mg/kg body weight, via tail-vein injection). Mice were euthanized and blood was harvested at time points ranging from 0 to 48 hours. Serum concentration of SACLAC was measured by mass spectrometry quantification relative to SACLAC standard using the method referenced above.
# [4] = Solubility in vehicles for i.v. drug delivery; assay type: physicochemical
smiles,measurement,setting,value
"CCCCCCCCCCCCCCC[C@@H](O)[C@H](CO)NC(=O)CCl [SACLAC, N-[(2S,3R)-1,3-dihydroxyoctadecan-2-yl]2-chloroacetamide]",apoptosis reached by more than half the samples,[1],≥ 80%
same,loss of mitochondrial membrane potential,OCI-AML2 cells,occurred in parallel with positive staining for the apoptosis marker annexin V
same,SF3B1 levels,[2],reduced
same,ratio of Mcl-1S/L,[2],increased
same,"maximal serum concentration, IV vs IP delivery",[3]; 5 mg/kg i.v. in β-HPCD vs 40 mg/kg i.p. in DMSO,higher maximal serum concentration than IP delivery
same,half-life in the blood,[3]; 40 mg/kg i.p. in DMSO or 5 mg/kg i.v. in β-HPCD,short half-life
same,peak serum SACLAC levels,[3]; after changing administration route and vehicle,less than 1 μM
same,uptake following i.p. injection,"[3]; mouse, in vivo, ip",suboptimal uptake
same,solubility in vehicles for i.v. drug delivery,[4],low solubility
